Measured values as given in ChEMBL document CHEMBL3507680, “University of Dundee, Gates Library screen for HepG2 cell viability”.

Experiment: Human HepG2 cell viability assay in 384 well format
Type: toxicity, cell-based
Design: dose 125 nL, time 70.5 hour; concentration not given beside the values
Conditions: HepG2 cells, read-out: Inhibition

Row | Compound | cytotoxicity at 70.5 h [%]
1 | COc1nonc1NCn1nc(C)cc1C | 51.2
2 | Cc1c(CN2CCCCC2)c(O)n(CCCO)c(=O)c1C#N | -4.27
3 | COCCN(CCOC)Cc1c(C)nc2ccccc2c1O | 5.31
4 | COCC(=O)N1CCN(S(=O)(=O)c2ccccc2)[C@@H](C(=O)OC)C1 | -5.08
5 | NC(=O)CN1C(=O)CO[C@H]2CN(Cc3ccccc3)C[C@H]21 | -0.937
6 | CN1CCC(N2CCOC[C@H]2c2nc(C(C)(C)C)c[nH]2)CC1 | 0.765
7 | O[C@@H]1C[C@@H](c2nc(-c3ccccc3)no2)N(Cc2ccncc2)C1 | -1.52
8 | CC1=C[C@@H](CN2CCN(C)CC2)[C@H](C(C)C)C[C@H]1Cc1nnc(C)o1 | -9.92
9 | CN(C)Cc1cc(CC2(NCc3ccc(C#N)cc3)COC2)no1 | -6.01
10 | CCNC(=O)N1C[C@@H]2OCC(=O)N(C)[C@@H]2C1 | 7.93
11 | CC(C)(C)c1c[nH]c([C@@H]2COCCN2C2CCNCC2)n1 | -0.308
12 | OCCc1cc(CC2(NCc3ccc(C(F)(F)F)cc3)COC2)no1 | -6.19
13 | CCN(CC)CC[C@H]1CN(C(=O)c2ccc(F)cc2)CC[C@H]1CC(=O)O | -2.08
14 | CC(C)NC(=O)[C@@H]1Cc2[nH]cnc2CN1CCCc1ccccc1 | 6.69
15 | CC1(C)[C@H](Cc2cc(CN3CCCCC3)on2)C[C@@H]1NS(C)(=O)=O | -4.26
16 | O=C(Cc1ccccc1)NC[C@H]1Cn2ccnc2CO1 | 5.13
17 | COc1ccc2c(c1)nc1n2[C@@H](CN(C2CCC2)C2CCC2)COC1 | 1.4
18 | O[C@@H]1C[C@@H](c2nc(-c3cccnc3)no2)N(C2CCOCC2)C1 | 16.4
19 | CCNC(=O)N1C[C@@H]2OCC(=O)N(CC3CC3)[C@@H]2C1 | -3.79
20 | CS(=O)(=O)Nc1ccc([C@H]2OCC(=O)N[C@@H]2CO)cc1 | 2.21
21 | O=C(NC[C@H]1OC[C@@H](NC2CCC(F)(F)CC2)[C@@H]1O)C1CC1 | -7.04
22 | COc1ccc(CN[C@@H]2CO[C@H](CNC(=O)NC(C)C)[C@H]2O)cc1 | -5.02
23 | CC(C)NC(=O)NC[C@H]1OC[C@@H](NCc2ccccc2O)[C@@H]1O | -2.12

Row | Compound | cytotoxicity at 70.5 h [%]
24 | CC(C)NC(=O)NC[C@H]1OC[C@@H](NCc2cccs2)[C@@H]1O | 9.03
25 | COc1ccc(S(=O)(=O)N2CCOC[C@H](Oc3cnccn3)C2)cc1 | -0.146
26 | Cc1cc(C(=O)N2CCOC[C@H](Oc3cnccn3)C2)c(C(F)(F)F)o1 | 2.77
27 | CC(=O)N1CCC(NC2(Cc3cc(C(C)(C)O)on3)COC2)CC1 | -7.16
28 | O=C(c1ccccn1)N1C[C@@H]2OCC(=O)N(CC3CCCCC3)[C@@H]2C1 | -6.75
29 | CC(C)(C)c1coc([C@@H]2COCCN2Cc2cnc3ccccc3c2)n1 | 0.0852
30 | COCCN1CCN(C(=O)C[C@@H]2C[C@@H](C(C)C)[C@H](CC#N)C=C2C)CC1 | 1.71
31 | COC(=O)c1cccc2nc([C@H]3CCN(Cc4ccccc4C)C3)oc12 | -14.2
32 | FC(F)(F)c1ccc2nc([C@H]3CCN(C4CCCCC4)C3)[nH]c2c1 | 5.15
33 | CCN(CC)C1(Cc2cc(COC)on2)COC1 | -0.489
34 | CS(=O)(=O)N1C[C@@H]2OCC(=O)N(CC3CC3)[C@@H]2C1 | -7.03
35 | O=C(c1cnccn1)N1C[C@@H]2OCC(=O)N(CC3CCCCC3)[C@@H]2C1 | -0.096
36 | O=C1N(Cc2cccnc2)C[C@H]2CN(C3CCOCC3)CCN12 | -0.196
37 | O=C(NC[C@H]1OC[C@@H](NC2CCC(F)(F)CC2)[C@@H]1O)c1cccs1 | -5.94
38 | c1cncc(O[C@H]2COCCN(Cc3c[nH]c4ccccc34)C2)c1 | 4.1
39 | O=C1N[C@@H]2CCN(C(=O)C3CCCC3)[C@@H]2C(=O)N1c1ccc(F)cc1 | -2.52
40 | Cn1cncc1-c1nnc([C@H]2CCN(Cc3ccc(F)c(F)c3)C2)o1 | -0.644
41 | Cn1cc(CN2C[C@@H](F)[C@@H](OCc3nc4cnccc4[nH]3)C2)cn1 | -1.11
42 | CCCN1CCN(Cc2cc3cc(OCC)ccc3[nH]c2=O)CC1 | -6.17
43 | Cc1ccc(-c2ccnc(N3CCC4(CC3)CNC(=O)O4)n2)c(C)n1 | -9.43
44 | Cc1nc(N2C[C@@H](CN3CCCCC3)[C@@H](CO)C2)c2sccc2n1 | 8.31
45 | CS(=O)(=O)N[C@H]1CN(CCOCc2ccccc2)C[C@@H]1C1CC1 | -2.16
46 | O=C(c1cc[nH]n1)N1CCc2ccc(S(=O)(=O)N3CCOCC3)cc2C1 | 3.21

Row | Compound | cytotoxicity at 70.5 h [%]
47 | Cc1cc(C)c2c(N(C)CC3CCN(CC(C)C)C3)ncnc2n1 (stereo unspecified) | -2.13
48 | O=C(Nc1ccccc1Cl)N1CCN(CC2CC2)[C@@H]2CS(=O)(=O)C[C@@H]21 | 16.8
49 | CCC1CN(C(=O)c2ccccc2N2CCCC2)CCN1C(C)C (stereo unspecified) | -4.31
50 | Cc1cc(N2CCN(Cc3ccc(-c4cc[nH]n4)o3)CC2)cc(C)n1 | 19.1
51 | COc1ccc(F)cc1C(C(=O)O)N1CCSCC1 (stereo unspecified) | -7.69
52 | Cc1ccc([C@@H]2CN(S(=O)(=O)C(C)C)C[C@H]2N(C)C)cc1 | -12.5
53 | Cc1cccc(CN2CCN(Cc3ccccc3)CC(O)C2)n1 (stereo unspecified) | -12.1
54 | Cc1cnc(N2CCCC3(CCCN(C)C3)C2)nc1 (stereo unspecified) | -0.385
55 | Cc1cc(C)c2nc(CN3CCCC(c4cc[nH]n4)C3)cc(O)c2c1 (stereo unspecified) | -2.87
56 | Cc1[nH]c(=O)[nH]c(=O)c1CN1CCCC(CCc2ccccc2)C1 (stereo unspecified) | -5.9
57 | O=C(c1cc(=O)[nH]c(=O)[nH]1)N1CCCCC1c1nc2cc(F)ccc2[nH]1 (stereo unspecified) | -6.77
58 | CCn1ccnc1CN1CCCC(CO)(Cc2cccc(Cl)c2)C1 (stereo unspecified) | -1.73
59 | CCC1CN(C(=O)c2ccc(=O)[nH]c2)CCC(=O)N1Cc1ccccc1 (stereo unspecified) | -2.4
60 | N#CCCSc1sc2c(O)cc(O)nc2c1C#N | 13.6
61 | Cc1cc(C)n(NC(=O)c2ccccc2F)c(=O)c1 | 15.6
62 | Cc1cc(C)n(NC(=O)c2ccc(Cl)cc2Cl)c(=O)c1 | -16.4
63 | CCC(NC(=O)c1nn(C)cc1C(=O)O)c1ccc(C)cc1C (stereo unspecified) | -6.11
64 | CCCSc1ncc(Cl)c(C(=O)NC(CCSC)C(=O)O)n1 (stereo unspecified) | -7.81
65 | Cc1cc(NCC2CCCO2)cc(=O)n1C (stereo unspecified) | -9.63
66 | N#CCCn1nc(C(F)(F)F)c2c1CCC2 | -2.44
67 | NCCCn1nc(C(F)(F)F)c2c1CCC2 | -7.21
68 | Cn1cc(N)c(-c2nnc3n2CCCC3)n1 | -0.222
69 | CC(C)c1cc(COCCCC(=O)O)no1 | -2.63

Row | Compound | cytotoxicity at 70.5 h [%]
70 | CCCn1cc2c(C(F)F)cc(SCC(=O)O)nc2n1 | -8.88
71 | Cn1nccc1CNC(=O)Cn1nc(C(F)(F)F)cc1C1CC1 | -10.5
72 | CC1=C(C#N)C(=O)NC(=O)/C1=C\c1c(C)nn(-c2ccccc2)c1O | -2.78
73 | Cc1c(Br)cc2c(c1C)OCC(N(C)C)C2=O (stereo unspecified) | 19.9
74 | CCN(CC)C1COc2c(cc(Br)c(C)c2C)C1=O (stereo unspecified) | -6.45
75 | COc1ccc(N(c2ccc(OC)cc2)c2ccc(C(=O)O)s2)cc1 | -3.85
76 | COc1ccc(-c2nonc2N)cc1 | -0.886
77 | O=C1NC(=O)c2c3c(nc(O)c21)CCCC3 | 0.775
78 | CCn1nccc1C(=O)NC(Cn1cccn1)C(C)(C)C (stereo unspecified) | 2.9
79 | O=C1CCC(=O)N1c1nn(Cc2ccc(F)cc2)cc1Cl | 18.7
80 | CNCc1cc(F)ccc1Oc1ccc(F)cc1F | -0.802
81 | CCn1cc(-c2cc(C(F)F)n3nc(CC(=O)O)nc3n2)cn1 | 0.375
82 | NC(=O)CSc1nccc(-c2ccc3c(c2)OCO3)n1 | -2.27
83 | NC1C=C(C(F)(F)F)NC=C1c1ccc(Cl)cc1 (stereo unspecified) | 3.46
84 | Cn1cc(-c2cc(C(F)F)n3nc(CCC(=O)O)nc3n2)cn1 | -4.35
85 | Cc1cn(Cc2ccccc2)nc1N | 2.81
86 | Cc1cccc(Cn2cc(C)c(N)n2)c1 | -1.64
87 | CS(=O)(=O)N1CCCC(C(=O)Nc2cnn(Cc3ccc(F)cc3)c2)C1 (stereo unspecified) | 0.36
88 | CS(=O)(=O)N1CCCC(C(=O)Nc2cnn(COCC(F)(F)F)c2)C1 (stereo unspecified) | 3.12
89 | O=C1CCC(=O)N1c1nn(Cc2ccccc2)cc1Cl | 20.6
90 | O=C1CCC(=O)N1c1nn(Cc2ccccc2Cl)cc1Cl | -0.484
91 | CCc1nc(C)cn1C(=O)Nc1ccc(C)cc1 | -1.55
92 | O=C(O)c1cc(-c2cccs2)nc2c(Br)cnn12 | 3.58

Row | Compound | cytotoxicity at 70.5 h [%]
93 | Cn1c(=O)c2cc(C(=O)NCc3ccncc3)ccc2n(C)c1=O | 2.17
94 | CCn1cc(-c2cc(C(F)(F)F)n(CCCN)n2)cn1 | 1.14
95 | COC(=O)c1ccc(CNCc2cn(C)nc2C)cc1 | 1.28
96 | Cc1nn(C)cc1CNCc1ccc(N(C)C)cc1 | 1.1
97 | CCOCCCNC(=O)Cc1cccs1 | -1.71
98 | Cc1cc(-n2cnnn2)n2ncnc2n1 | 3.71
99 | N#Cc1cc2c(nc1SCc1cc(O)nc(O)n1)CCCCC2 | -1.03
100 | Cc1nn(C)cc1-c1cc(C(F)(F)F)c2c(C)nn(CC(=O)O)c2n1 | 32
101 | COCc1c(C(=O)NC2CCCC2)nnn1-c1ccc(C)cc1 | 22.4
102 | Cc1ccc(NC(=O)C2=CN=S=N2)cc1 | 18.8
103 | CCCn1ncc2c(C(=O)Nc3cnn(CC)c3C)cc(C3CC3)nc21 | 5.37
104 | CCn1ncc(NC(=O)c2cc(C3CC3)nc3c2c(C)nn3C)c1C | 35.5
105 | CNC(=O)c1cccc(C2CNCCN2C(C)=O)c1 (stereo unspecified) | 14.8
106 | COc1ccc(-c2nccnc2C2CCN(C(C)=O)CC2)cc1 | 19.6
107 | CNC(=O)[C@@H](c1ccccc1F)N1CCC[C@H]1C(=O)NC1CCOCC1 | -12.5
108 | CCNC(=O)[C@@H]1CCCN1C1(C(=O)NC)CCC1 | -5.11
109 | CNC(=O)[C@@H](C1CC1)N1CCC[C@H]1C(=O)NCC(C)C | -7.95
110 | CNC(=O)[C@@H](c1ccccc1OC)N1CCC[C@H]1C(=O)N1CCC1 | -5.76
111 | CNC(=O)C(C)(C)N1CCC[C@H]1C(=O)NCCN1CCCC1 | 5.17
